Data taken from ChEMBL document CHEMBL3217461, “Synthesis of tetrazoleisoxazoline hybrids as a new class of tubulin polymerization inhibitors” (Medchemcomm, 2012).
Active and inactive are the calls of the source. The rule behind the calls is not given here.

Assays:
A549 [1] = assay: Cell cycle arrest in human A549 cells assessed as accumulation at G0 phase at 2 uM after 24 hrs using propidium iodide staining by flow cytometer analysis (reference value: 0.56%); format: functional
MDA-MB-231 = assay: Cytotoxicity against human MDA-MB-231 cells after 48 hrs by MTT assay; format: functional, cell-based; conditions: MDA-MB-231, 48 h
A549 [2] = assay: Cell cycle arrest in human A549 cells assessed as accumulation at G1 phase at 2 uM after 24 hrs using propidium iodide staining by flow cytometer analysis (reference value: 80.03%); format: functional
A549 [3] = assay: Cytotoxicity against human A549 cells after 48 hrs by MTT assay; format: functional, cell-based; conditions: A549, 48 h
A549 [4] = assay: Cell cycle arrest in human A549 cells assessed as accumulation at S phase at 2 uM after 24 hrs using propidium iodide staining by flow cytometer analysis (reference value: 5.43%); format: functional
A549 [5] = assay: Cell cycle arrest in human A549 cells assessed as accumulation at G2/M phase at 2 uM after 24 hrs using propidium iodide staining by flow cytometer analysis (reference value: 13.98%); format: functional
Tubulin (Homo sapiens) [6] = biological target: T1, Tubulin (Homo sapiens) (UniProt P68371+Q9H4B7+P0DPH7+P68366+Q13509+Q71U36+P04350+Q3ZCM7+P07437+P68363+Q9BQE3+Q6PEY2+Q13885+Q9BVA1+Q9BUF5); assay: Inhibition of tubulin (unknown origin) at 2 uM after 30 to 60 mins by HTS assay; format: protein-complex assay
Tubulin (Bos taurus) = Tubulin (Bos taurus) (UniProt Q6B856+Q862L2+Q862F3); assay: Displacement of [3H]-colchicine from purified bovine brain tubulin at 5 uM after 1 hr by scintillation proximity assay
A549 [7] = assay: Induction of apoptosis in human A549 cells assessed as increase of caspase-3 expression at 2 uM after 2 hrs by Western blot analysis; format: functional, cell-based
Tubulin (Homo sapiens) [8] = biological target: T1, Tubulin (Homo sapiens); assay: Inhibition of tubulin polymerization in human A549 cells assessed as microtubule network at 2 uM after 24 hrs by immunofluorescence microscopy analysis; format: cell-based
Tubulin (Homo sapiens) [9] = biological target: T1, Tubulin (Homo sapiens); assay: Inhibition of gamma-tubulin in human A549 cells assessed as decrease in protein organization pattern at 2 uM after 24 hrs by immunofluorescence analysis; format: cell-based

| SMILES | Activity (A549 [1]) | IC50 (MDA-MB-231) | Activity (A549 [2]) | IC50 (A549 [3]) | Activity (A549 [4]) | Activity (A549 [5]) | inhibition (Tubulin (Homo sapiens) [6]) | inhibition (Tubulin (Bos taurus)) | Activity (A549 [7]) | inhibition (Tubulin (Homo sapiens) [8]) | inhibition (Tubulin (Homo sapiens) [9]) |
| --- | --- | --- | --- | --- | --- | --- | --- | --- | --- | --- | --- |
| COc1cc(C2=NOC(COc3ccc(-c4nnnn4-c4cc(OC)c(OC)c(OC)c4)cc3N)C2)ccc1O (stereo unspecified) | 1.65% | 3620 nM | 70.71% | 2010 nM | 6.41% | 21.18% | – | – | – | – | – |
| COc1cc(-n2nnnc2-c2ccc(OCC3CC(c4ccccc4F)=NO3)c(N)c2)cc(OC)c1OC (stereo unspecified) | 3.19% | 2400 nM | 11.34% | 1490 nM | 6.04% | 79.42% | Active | 92% | Active | Active | Active |
| COc1cc(-n2nnnc2-c2ccc(OCC3CC(c4cccc(Cl)c4)=NO3)c(N)c2)cc(OC)c1OC (stereo unspecified) | 6.83% | 2180 nM | 49.34% | 1340 nM | 5.53% | 38.3% | – | – | – | – | – |
| COc1cc(C2=NOC(COc3ccc(-c4nnnn4-c4cc(OC)c(OC)c(OC)c4)cc3N)C2)cc(OC)c1OC (stereo unspecified) | 1.74% | 3230 nM | 72.62% | 2060 nM | 4.92% | 20.72% | – | – | – | – | – |
| COc1cc(-n2nnnc2-c2ccc(OCC3CC(c4ccc(OC)c(OC)c4OC)=NO3)c(N)c2)cc(OC)c1OC (stereo unspecified) | 1.08% | 3540 nM | 73.18% | 2030 nM | 5.4% | 20.34% | – | – | – | – | – |
| CC(=O)O[C@H]1C(=O)[C@@]2(C)[C@H]([C@H](OC(=O)c3ccccc3)[C@]3(O)C[C@H](OC(=O)[C@H](O)[C@@H](NC(=O)c4ccccc4)c4ccccc4)C(C)=C1C3(C)C)[C@]1(OC(C)=O)CO[C@@H]1C[C@@H]2O | – | – | – | – | – | – | – | 20% | – | – | – |
| COc1ccc(C2=NOC(COc3ccc(-c4nnnn4-c4cc(OC)c(OC)c(OC)c4)cc3N)C2)cc1[N+](=O)[O-] (stereo unspecified) | 1.84% | 3560 nM | 74.79% | 2220 nM | 5.29% | 18.08% | – | – | – | – | – |
| COc1ccc(C2=NOC(COc3ccc(-c4nnnn4-c4cc(OC)c(OC)c(OC)c4)cc3N)C2)cc1O (stereo unspecified) | 2.05% | 3380 nM | 69.87% | 2130 nM | 6.27% | 21.81% | – | – | – | – | – |
| COc1cc(C2=NOC(c3cc(OC)c(OC)c(OC)c3)C2)ccc1O (stereo unspecified) | 1.42% | 3600 nM | 65.98% | 2600 nM | 4.25% | 27.86% | – | – | – | – | – |
| COc1ccc(C2=NOC(COc3ccc(-c4nnnn4-c4cc(OC)c(OC)c(OC)c4)cc3N)C2)cc1N (stereo unspecified) | 1.68% | 3000 nM | 75.87% | 2080 nM | 5.42% | 17.03% | – | – | – | – | – |
| COc1ccc(F)c(C2=NOC(COc3ccc(-c4nnnn4-c4cc(OC)c(OC)c(OC)c4)cc3N)C2)c1 (stereo unspecified) | 2.55% | 2830 nM | 10.23% | 1510 nM | 5.93% | 81.29% | Active | 90% | Active | Active | Active |
| COc1ccc(C2=NOC(COc3ccc(-c4nnnn4-c4cc(OC)c(OC)c(OC)c4)cc3N)C2)cc1OC (stereo unspecified) | 1.44% | 3570 nM | 73.08% | 2520 nM | 5.31% | 20.18% | – | – | – | – | – |
| COc1cc(-n2nnnc2-c2ccc(OCC3CC(c4ccc(C(F)(F)F)cc4)=NO3)c(N)c2)cc(OC)c1OC (stereo unspecified) | 7.14% | 1750 nM | 43.08% | 1220 nM | 4.17% | 45.61% | – | – | – | – | – |
| COc1ccc(/C=C\c2cc(OC)c(OC)c(OC)c2)cc1O [COMBRETASTATIN A4] | 1.79% | 100 nM | 7.47% | 550 nM | 6.03% | 84.71% | – | – | – | – | – |
| COc1ccc(-c2nnnn2-c2cc(OC)c(OC)c(OC)c2)cc1N | 1.05% | 3170 nM | 72.31% | 2630 nM | 3.47% | 23.1% | – | – | – | – | – |
| COc1ccc(OC)c(C2=NOC(COc3ccc(-c4nnnn4-c4cc(OC)c(OC)c(OC)c4)cc3N)C2)c1 (stereo unspecified) | 0.95% | 3500 nM | 75.39% | 1930 nM | 5.02% | 18.63% | – | – | – | – | – |
